How the values were obtained:
physchem = experiment: physchem
Procedure: Measurement of the water solubility of the test compounds is accomplished by using methods well known to those skilled in the art. […] The total volume of the solution is measured. […] This is a clear indication of an unexpectedly high degree of bioavailability of the compositions of the invention. Highly water soluble medicinal preparations, when administered orally, result in efficient absorption of such preparations from the gastrointestinal tract into systemic circulation. Such preparations permit rapid absorption into the blood stream resulting in a high concentration of the active agent in the blood. Furthermore, water soluble preparations are especially suitable for parenteral administration, for example, intravenous administration.

[1] = Air and light sensitivity observed on isolation and storage; assay type: physicochemical; details: isolated solid; therefore stored in an amber vial under nitrogen
Procedure: The reaction flask was covered in foil to protect it from light. After stirring for 1 h at room temperature, the mixture was chilled to 0° C. for 1 h, and then filtered under an atmosphere of nitrogen. The solid was washed with 50 mL ice-cold acetonitrile and then quickly transferred to a foil-covered round bottom flask and placed under high vac.

SMILES	solubility (physchem; water, thermodynamic from solid)	times more soluble in water than EPA (physchem; ratio of water solubility versus EPA itself)	sensitivity to air and light [1]
CC/C=C\C/C=C\C/C=C\C/C=C\C/C=C\CCCC(=O)O [EPA, (5Z,8Z,11Z,14Z,17Z)-eicosa-5,8,11,14,17-pentaenoic acid, reference compound]	< 200 µg/mL	–	–
CC/C=C\C/C=C\C/C=C\C/C=C\C/C=C\CCCC(=O)O.CN(C)C(=N)NC(=N)N [Example 1, {[Amino(imino)methyl]amino}(dimethylamino)methaniminium (5Z,8Z,11Z,14Z,17Z)-eicosa-5,8,11,14,17-pentaenoate]	–	≥ 250 times	air and light sensitive

Source: patent US9012507B2, “Lipid-lowering antidiabetic agent” (Thetis Pharmaceuticals LLC, priority 2011, dated 2015)
